pIC50, pKi: −log10 of the molar value. “Also recorded” adds a separate entry of the source. Structures can show the parent of a compound that is named as a salt. Where two headings read alike, the source gives them in different places.
Tests used:
[1] = test system: L1210 cells; assay: Polyamine pool analysis in L1210 cells; type: cell-based, murine; details: for Put / Spd / activity at 100 µM / activity at 500 µM / activity at 25 µM / activity at 125 µM / activity at 0.9 µM / activity at 4.5 µM: % of untreated control; for Put / Spd: Trihydrochloride; for activity at 100 µM / activity at 500 µM / activity at 25 µM / activity at 125 µM / activity at 0.9 µM / activity at 4.5 µM: Mus musculus; for Analogue: intracellular amount
Procedure: The following guidelines were adopted for studying the impact of the analogues on polyamine pools (Table 2). The measurements were made after a 48-hour exposure to the analogue, and two different concentrations of analogue were evaluated in each case.
(§1) The cells were washed twice with cold RPMI-1640, and the pellet was treated with 0.6 N HClO4 (1 ml/10^7 cells). Polyamine contents of the perchloric acid extracts were quantitated by HPLC of the DANSYL derivatives [Bergeron et al, J. Med. Chem., Vol. 37, supra].

[2] = test system: S-adenosylmethionine decarboxylase (AdoMetDC); assay: AdoMetDC activity in treated L1210 cells; type: cell-based, murine; details: L1210, 1 μM at 6 hours
Procedure: (§2) On the basis of these studies, it was elected to evaluate the impact of the triamines on ODC and AdoMetDC at 4 and 6 hours, respectively.
(§3) ODC and AdoMetDC activities were determined as ^14CO2 released from [^14C]-carboxyl-labeled L-ornithine [Seely et al, “Ornithine Decarboxylase (Mouse Kidney),” Methods Enzymol., Vol. 94, pages 158-161 (1983)] or S-adenosyl-L-methionine [Pegg et al, “S-Adenosylmethionine Decarboxylase (Rat Liver),” Methods Enzymol., Vol. 94, pages 234-239 (1983)], respectively. Included in each assay were untreated L1210 cells as controls, as well as cells treated with DEHSPM, a drug having a known reproducible effect on each enzyme, as positive controls.

[3] = test system: L1210 cells; assay: L1210 growth inhibition, IC50 determination; type: cell-based, murine
Procedure: Murine L1210 leukemia cells (ATCC CCL 219) were maintained in logarithmic growth in RPMI-1640 medium containing 10% fetal calf serum or a semi-synthetic equivalent, NuSerum, 2% HEPES-MOPS buffer and 1 mM aminoguanidine.

[4] = test system: ornithine decarboxylase (ODC); assay: ODC activity in treated L1210 cells; type: cell-based, murine; details: L1210, 1 μM at 4 hours
Procedure: as §2, §3

[5] = test system: spermidine/spermine acetyltransferase (SSAT); assay: SSAT activity in treated L1210 cells; type: cell-based, murine; details: L1210, 10 μM at 48 hours (triamine analogues)
Excerpt: Spermidine/spermine N^1-acetyltransferase activity was based on quantitation of [^14C]-N^1-acetylspermidine formed by acetylation of SPD with [^14C] acetyl coenzyme A according to the method of Libby et al [Biochem. Pharmacol., Vol. 38, supra]. Cells treated with DENSPM were positive controls.

[6] = test system: polyamine transport apparatus; assay: Competitive uptake determination: inhibition of [3H]spermidine transport into L1210 cells; type: cell-based, murine; details: analogue inhibition of spermidine transport
Procedure: The ability of the norspermidines, spermidines, homospermidines, 4,5- and 5,5-triamines to compete with radiolabeled SPD for uptake was evaluated (Table 1). The general trend is that the terminally alkylated triamines have higher Ki values than the unalkylated triamines and are thus less easily taken up by the cell. […] This is not completely true with the norspermidines and the 5,5 triamines. The relationship holds with methyl and ethyl but not for the propyl of the latter two systems. Finally, the number of methylenes separating the amines plays a role in determining polyamine uptake properties. In general the effectiveness with which the analogues compete for uptake is spermidines≈homospermidines>4,5 triamines>5,5 triamines>norspermidine.
The polyamine derivatives were studied for their ability to compete with [^3H]-SPD for uptake into L1210 cells [Bergeron et al, J. Med. Chem., Vol. 37, supra]. Lineweaver-Burk plots indicated a simple competitive inhibition with respect to SPD.

[7] = test system: L1210 cells; assay: Metabolic transformation of polyamine analogues by L1210 cells; type: in vitro ADME, murine; details: 48 hours, 100 μM analogue
Procedure: as §1

[8] = test system: L1210 cells; details: intracellular amount, 48 hours, cited from earlier work
[9] = 500 μM, 48 hours, listed as (4,5)
[10] = L1210, 48 h, 100 μM, read-out: Put
[11] = L1210, 48 h, 100 μM, read-out: Spd
[12] = L1210, 48 h, 100 μM, read-out: Spm
[13] = L1210, 48 h, 500 μM, read-out: Put
[14] = L1210, 48 h, 500 μM, read-out: Spd
[15] = L1210, 48 h, 500 μM, read-out: Spm
[16] = Mus musculus, L1210, 48 h, L1210, 48 hour exposure, read-out: IC50 48 hour
[17] = Mus musculus, L1210, 96 h, L1210, 96 hour exposure, read-out: IC50 96 hour
[18] = 500 μM, 48 hours, listed as (5,5)

| Analogue ([1]; 100 μM, 48 hours) | Analogue ([1]; 500 μM, 48 hours) | pIC50 [3, 16] | pIC50 [3, 17] | Parent drug as % of total drug in the cell [7] | Parent drug in L1210 cells [7] | SMILES | activity at 100 µM [1, 10] | activity at 100 µM [1, 11] | activity at 100 µM [1, 12] | activity at 500 µM [1, 13] | activity at 500 µM [1, 14] | activity at 500 µM [1, 15] | AdoMetDC activity, percent of untreated control [2] | ODC activity, percent of untreated control [4] | SSAT activity, percent of untreated control [5] | pKi [6] | further results |
| --- | --- | --- | --- | --- | --- | --- | --- | --- | --- | --- | --- | --- | --- | --- | --- | --- | --- |
| 3.02 nmol/10^6 cells | 3.20 nmol/10^6 cells | < 4.00 | 6.70 to 6.82 | – | – | NCCCCCNCCCCN [4,5-Triamine, 1,6,12-Triazadodecane Trihydrochloride] | 0% | 1% | 53% | 0% | 0% | 35% | 57% of untreated control | 19% of untreated control | 410% of untreated control | 5.85 | Put [1, 9]: below detectable level; Spd [1, 9]: below detectable level |
| 2.58 nmol/10^6 cells | 2.50 nmol/10^6 cells | ~4.00 | 6.30 to 6.52 | – | – | NCCCCCNCCCCCN [5,5-Triamine, 1,7,13-Triazatridecane Trihydrochloride] | 0% | 0% | 33% | 0% | 0% | 20% | 88% of untreated control | 16% of untreated control | 90% of untreated control | 4.86 | Put [1, 18]: below detectable level; Spd [1, 18]: below detectable level |
| – | – | 4.60 | 6.40 to 6.52 | 100% | 4215 pmols/10^6 | CCNCCCCNCCCCNCC [DEHSPD, N^1,N^9-Diethylhomospermidine Trihydrochloride] | – | – | – | – | – | – | 90% of untreated control | 47% of untreated control | 640% of untreated control | 4.72 | N-Monodealkylation (result in words) ([7]; listed as DE-[4,4], Trihydrochloride): do not show significant N-deethylation; also recorded: no N-deethylation; activity at 25 µM ([1]; L1210, 48 h, 25 μM, read-out: Put): 0%; activity at 25 µM ([1]; L1210, 48 h, 25 μM, read-out: Spd): 6%; activity at 25 µM ([1]; L1210, 48 h, 25 μM, read-out: Spm): 114%; activity at 125 µM ([1]; L1210, 48 h, 125 μM, read-out: Put): 0%; activity at 125 µM ([1]; L1210, 48 h, 125 μM, read-out: Spd): 3%; activity at 125 µM ([1]; L1210, 48 h, 125 μM, read-out: Spm): 97%; Analogue ([1]; 25 μM, 48 hours): 4.61 nmol/10^6 cells; Analogue ([1]; 125 μM, 48 hours): 4.69 nmol/10^6 cells; pIC50 ([3]; L1210, 48 hour exposure, Trihydrochloride, read-out: IC50 48 hour): 4.60 to 4.74 |
| 3.26 nmol/10^6 cells | 3.69 nmol/10^6 cells | < 4.00 | 4.46 to 4.52 | 90.1% | 3260 pmols/10^6 | CCCNCCCCNCCCNCCC [DPSPD, N^1,N^8-Dipropylspermidine Trihydrochloride] | 6% | 35% | 135% | 0% | ~10% | 99% | – | 75% of untreated control | 1030% of untreated control | 4.59 | – |
| – | – | < 4.00 | < 4.00 | 78.2% | 3051 pmols/10^6 | CCNCCCNCCCN [MENSPD, monoethylnorspermidine] | – | – | – | – | – | – | 58% of untreated control | 42% of untreated control | 390% of untreated control | 4.47 | Elaboration to tetraamine (result in words) ([7]; listed as ME-[3,3]): no evidence of a tetraamine elaboration metabolite; also recorded: no elaboration of N-Monoalkyl [3,3] |
| – | – | – | – | – | – | CCNCCCNCCCCNCCCN [MESPM] | – | – | – | – | – | – | – | – | – | – | Analogue, corresponding tetraamine (in parentheses) ([8]; 100 μM): (1.24) nmol/10^6 cells; Analogue, corresponding tetraamine (in parentheses) ([8]; 500 μM): (1.23) nmol/10^6 cells |
| 5.16 nmol/10^6 cells | 5.86 nmol/10^6 cells | 4.00 | 6.15 to 6.30 | – | – | CCCNCCCCNCCCCN [MPHSPD, N^1-Propylhomospermidine Trihydrochloride] | 0% | 2% | 82% | 0% | 0% | 66% | 59% of untreated control | 20% of untreated control | 570% of untreated control | 5.30 | – |

| SMILES | Analogue ([1]; 100 μM, 48 hours) | Analogue ([1]; 500 μM, 48 hours) | pIC50 [3, 16] | pIC50 [3, 17] | Parent drug as % of total drug in the cell [7] | Parent drug in L1210 cells [7] | activity at 100 µM [1, 10] | activity at 100 µM [1, 11] | activity at 100 µM [1, 12] | activity at 500 µM [1, 13] | activity at 500 µM [1, 14] | activity at 500 µM [1, 15] | AdoMetDC activity, percent of untreated control [2] | ODC activity, percent of untreated control [4] | SSAT activity, percent of untreated control [5] | pKi [6] | further results |
| --- | --- | --- | --- | --- | --- | --- | --- | --- | --- | --- | --- | --- | --- | --- | --- | --- | --- |
| NCCCCNCCCCN [HSPD, Homospermidine Trihydrochloride] | 3.58 nmol/10^6 cells | 4.44 nmol/10^6 cells | < 4.00 | 5.40 to 5.77 | – | – | – | – | – | – | – | – | 54% of untreated control | 11% of untreated control | 430% of untreated control | 5.47 | activity at 100 µM ([1]; L1210, 100 μM, 48 hours, read-out: Put): 0%; activity at 100 µM ([1]; L1210, 100 μM, 48 hours, read-out: Spd): 4%; activity at 100 µM ([1]; L1210, 100 μM, 48 hours, read-out: Spm): 32%; activity at 500 µM ([1]; L1210, 500 μM, 48 hours, read-out: Put): 0%; activity at 500 µM ([1]; L1210, 500 μM, 48 hours, read-out: Spd): 2%; activity at 500 µM ([1]; L1210, 500 μM, 48 hours, read-out: Spm): 21% |
| NCCCNCCCN [NSPD, N—(3-aminopropyl)-1,3-propanediamine, reference compound] | – | – | 6.05 | 6.30 | – | – | – | – | – | – | – | – | 62% of untreated control | 11% of untreated control | 150% of untreated control | 5.14 | activity at 0.9 µM ([1]; L1210, 0.9 μM, 48 hours, read-out: Put): 38%; activity at 0.9 µM ([1]; L1210, 0.9 μM, 48 hours, read-out: Spd): 44%; activity at 0.9 µM ([1]; L1210, 0.9 μM, 48 hours, read-out: Spm): 113%; activity at 4.5 µM ([1]; L1210, 4.5 μM, 48 hours, read-out: Put): 0%; activity at 4.5 µM ([1]; L1210, 4.5 μM, 48 hours, read-out: Spd): 12%; activity at 4.5 µM ([1]; L1210, 4.5 μM, 48 hours, read-out: Spm): 83%; Analogue ([1]; 0.9 μM, 48 hours): 1.09 nmol/10^6 cells; Analogue ([1]; 4.5 μM, 48 hours): 2.14 nmol/10^6 cells |
